Values quoted from earlier work in US20100003364A1, “REDUCED-HANGOVER ALCOHOLIC BEVERAGE COMPRISING TURMERIC” (priority 2006, published 2010).

settings: biological activities listed for compounds from Curcuma longa L.

| Compound | Activity |
| --- | --- |
| CC(C)=CC(=O)CC(C)c1ccc(C)cc1 (stereo not shown) [Ar-turmerone] | snakebite |
| O=C(C=Cc1ccc(O)cc1)CC(=O)C=Cc1ccc(O)cc1 [Bisdemethoxy curcumin] | antioxidant |
| COc1cc(/C=C/C(=O)CC(=O)/C=C/c2ccc([O-])c(OC)c2)ccc1[O-].[Na+].[Na+] [Sodium curcuminate] | anti-inflammatory |
| Methylcurcumin | L. amazonensis |
